Test results from patent US20240251792A1, “WEED CONTROL METHOD” (SYNGENTA CROP PROTECTION AG, priority 2021, published 2024).
Like-named read-outs stand apart in the source and are kept apart here.

Tests used:
Type in all cases: in vivo
ABUTH = assay: Pre-emergence biological efficacy (Table 3); details: Abutilon theophrasti, 312 h, after 13 days, read-out: evaluation (100=total damage to plant; 0=no damage to plant)
Method: (§1) Seeds of weeds and/or crops were sown in standard soil in pots. After cultivation for one day under controlled conditions in a glasshouse (at 24/19° C., day/night; 16 hours light), the plants were sprayed with an aqueous spray solution derived from the formulation of the technical active ingredient in a small amount of acetone and a special solvent and emulsifier mixture referred to as AMA (11.12% Emulsogen EL360 TM+44.44% N-methylpyrrolidone+44.44% Dowanol DPM glycol ether), to create a 50 g/l solution which was then diluted using 0.2% Genapol X080 as diluent to give the desired final dose of test compound.
(§2) The test plants were then grown under controlled conditions in the glasshouse (at 24/18° C., day/night; 15 hours light; 50% humidity) and watered twice daily. After 13 days the test was evaluated (100=total damage to plant; 0=no damage to plant).

AMARE = assay: Pre-emergence biological efficacy (Table 3); details: Amaranthus retroflexus, 312 h, 1000 g/ha, after 13 days, read-out: evaluation (100=total damage to plant; 0=no damage to plant)
Method: as §1, §2

IPOHE = assay: Pre-emergence biological efficacy (Table 3); details: Ipomoea hederacea, 312 h, 1000 g/ha, after 13 days, read-out: evaluation (100=total damage to plant; 0=no damage to plant)
Method: as §1, §2

STEME = assay: Pre-emergence biological efficacy (Table 3); details: 312 h, after 13 days, read-out: evaluation (100=total damage to plant; 0=no damage to plant)
Method: as §1, §2

ZEAMX = assay: Pre-emergence biological efficacy (Table 3); details: 312 h, 1000 g/ha, after 13 days, read-out: evaluation (100=total damage to plant; 0=no damage to plant)
Method: as §1, §2

weeds and/or crops = assay: Post-emergence biological efficacy (Table 4); details: 312 h, 1000 g/ha, evaluated after 13 days
Method: as §1, with “14 days” for “one day”, “F50” for “AMA”
as §2

[1] = STEME, read-out: damage to plant STEME (100=total damage; 0=no damage)
[2] = ZEAMX, read-out: damage to plant ZEAMX (100=total damage; 0=no damage)
[3] = Amaranthus retroflexus, AMARE, read-out: damage to plant AMARE (100=total damage; 0=no damage)
[4] = Echinochloa crus-galli, ECHCG, read-out: damage to plant ECHCG (100=total damage; 0=no damage)
[5] = Ipomoea hederacea, IPOHE, read-out: damage to plant IPOHE (100=total damage; 0=no damage)
[6] = Abutilon theophrasti, ABUTH, read-out: damage to plant ABUTH (100=total damage; 0=no damage)

Structure (SMILES) | pest or weed control at 1000 g/ha (ABUTH) [%] | pest or weed control at 1000 g/ha (AMARE) [%] | pest or weed control at 1000 g/ha (IPOHE) [%] | pest or weed control at 1000 g/ha (STEME) [%] | plant injury at 1000 g/ha (ZEAMX) [%] | pest or weed control at 1000 g/ha (weeds and/or crops; [1]) [%] | pest or weed control at 1000 g/ha (weeds and/or crops; [2]) [%] | pest or weed control at 1000 g/ha (weeds and/or crops; [3]) [%] | pest or weed control at 1000 g/ha (weeds and/or crops; [4]) [%] | pest or weed control at 1000 g/ha (weeds and/or crops; [5]) [%] | pest or weed control at 1000 g/ha (weeds and/or crops; [6]) [%]
O=C(O)C(F)(F)c1cccc(O)c1 [Compound 1-5, 2,2-Difluoro-2-(3-hydroxyphenyl)acetic acid] | 10 | 10 | 20 | 20 | 10 | 20 | 10 | 20 | 10 | 20 | –
O=C(O)C(F)(F)c1cc(O)ccc1Cl [Compound 1-61, 2-(2-Chloro-5-hydroxyphenyl)-2,2-difluoroacetic acid] | 0 | 20 | 0 | 0 | 0 | 10 | 10 | 10 | – | 20 | 10
O=C(O)C(F)(F)c1cc(-c2ccc(F)cc2)ccc1Cl [Compound 1-64, 2-(4-Chloro-4′-fluoro-[1,1′-biphenyl]-3-yl)-2,2-difluoroacetic acid] | 0 | 0 | 10 | 0 | 10 | 0 | 40 | 50 | – | 50 | 0
O=C(O)C(F)(F)c1c(Cl)cccc1[N+](=O)[O-] [Compound 1-67, 2-(2-Chloro-6-nitrophenyl)-2,2-difluoroacetic acid] | 0 | 0 | 30 | 0 | 10 | 10 | 10 | 30 | – | 60 | 10
Nc1cc(Cl)c(Cl)c(C(F)(F)C(=O)O)c1 [Compound 1-77, 3-[carboxy(difluoro)methyl]-4,5-dichloroanilinium] | 10 | 10 | 30 | 10 | 0 | 30 | 10 | 60 | 0 | 10 | –
O=C(O)C(F)(F)c1cc(-c2ccc(F)cc2)cc(Cl)c1Cl [Compound 1-78, 2-(4,5-Dichloro-4′-fluoro-[1,1′-biphenyl]-3-yl)-2,2-difluoroacetic acid] | – | 0 | 0 | 0 | 0 | 0 | 30 | 50 | – | 40 | 10
COc1c(Cl)cc(Cl)c(Cl)c1C(F)(F)C(=O)O [Compound 1-82, 2,2-Difluoro-2-(2,3,5-trichloro-6-methoxy-phenyl)acetic acid] | – | 60 | 20 | 30 | 0 | 10 | 20 | 60 | – | 30 | 20
